US20260125400A1, “TYK2 DEGRADERS AND USES THEREOF” (Kymera Therapeutics, Inc., priority 2023, published 2026)
Like-named read-outs stand apart in the source and are kept apart here.

Biological target: T1, TYK2 (Homo sapiens, UniProt P29597)
T1 construct: Degradation of TYK2 in cells was quantitatively measured using Meso Scale Discovery (MSD) technology; endogenous in cells; host or cells: OCI-LY10
Assay: TYK2 MSD degradation in OCI-LY10 cells
Format: cell-based
Settings: 4 to 24 hours incubation; for DC50: read-out: TYK2 MSD OCI-LY10 Rel-DC50
Method: Example 7. TYK2 MSD Degradation
Degradation of TYK2 in cells was quantitatively measured using Meso Scale Discovery (MSD) technology. OCI-LY10 cells were seeded in 96-well plates with a density of 0.4 million cells per well in 100 μl fresh media. Compounds were then added to the assay plates with a final top concentration of 1 to 10 μM in a 1:3 dilution series with total of 9 doses. The assay plates were then incubated for 4 to 24 hours at 37° C. under […]. The assay plates were then centrifuged for 5 minutes, and the cell pellets were treated with 100 μl/well RIPA lysis buffer (Boston Bioproducts, BP-115D) with protease and phosphatase inhibitors (Roche, 05892791001 and 04906837001). To prepare MSD assay plates (MSD, L15XA), the plates were coated with the capture antibody (Santa Cruz Biotechnology, SC-5271) in PBS, at 40 μl/well. The plates were then incubated overnight at 4° C., washed 3 times with 150 μl/well TBST buffer (Cell Signaling Technology, 9997S) and blocked with 150 μl/well blocking buffer (MSD, R93BA-4). Cell lysates were then added to MSD assay plates and the plates were incubated at room temperature for 1 hour. The plates were then washed 3 times with 150 μl/well TBST buffer and 25 μl/well primary detection antibody (Cell Signaling Technology, #9312). The assay plates were then incubated at room temperature for 1 hour, washed 3 times with 150 μl/well TBST buffer, and 25 μl/well secondary detection antibody, SULFO-TAG anti-rabbit antibody (MSD, R32AB-1) were added. The assay plates were then incubated at room temperature for 1 hour, washed 3 times with 150 μl/well TB ST buffer, and 150 μl/well MSD reading buffer (MSD, R92TC-2) were added. The plates were then analyzed by an MSD reader. The data was analyzed by GraphPad Prism and the dose dependent TYK2 degradation was fit using the four-parameter inhibitor vs. response nonlinear regression.
The letter codes for TYK2 DC50 include: A (<1 nM); B (i to <10 nM); C (10 to 100 nM); D (>100 nM); and E (not tested). The letter codes for TYK2 Dmax % include: A (>90%); B (90 to >75%); C (75 to 50%); D (<50%); and E (not tested).

[1] = TYK2 degradation in OCI-LY10 cells

T1 sequence (P29597 whole entry): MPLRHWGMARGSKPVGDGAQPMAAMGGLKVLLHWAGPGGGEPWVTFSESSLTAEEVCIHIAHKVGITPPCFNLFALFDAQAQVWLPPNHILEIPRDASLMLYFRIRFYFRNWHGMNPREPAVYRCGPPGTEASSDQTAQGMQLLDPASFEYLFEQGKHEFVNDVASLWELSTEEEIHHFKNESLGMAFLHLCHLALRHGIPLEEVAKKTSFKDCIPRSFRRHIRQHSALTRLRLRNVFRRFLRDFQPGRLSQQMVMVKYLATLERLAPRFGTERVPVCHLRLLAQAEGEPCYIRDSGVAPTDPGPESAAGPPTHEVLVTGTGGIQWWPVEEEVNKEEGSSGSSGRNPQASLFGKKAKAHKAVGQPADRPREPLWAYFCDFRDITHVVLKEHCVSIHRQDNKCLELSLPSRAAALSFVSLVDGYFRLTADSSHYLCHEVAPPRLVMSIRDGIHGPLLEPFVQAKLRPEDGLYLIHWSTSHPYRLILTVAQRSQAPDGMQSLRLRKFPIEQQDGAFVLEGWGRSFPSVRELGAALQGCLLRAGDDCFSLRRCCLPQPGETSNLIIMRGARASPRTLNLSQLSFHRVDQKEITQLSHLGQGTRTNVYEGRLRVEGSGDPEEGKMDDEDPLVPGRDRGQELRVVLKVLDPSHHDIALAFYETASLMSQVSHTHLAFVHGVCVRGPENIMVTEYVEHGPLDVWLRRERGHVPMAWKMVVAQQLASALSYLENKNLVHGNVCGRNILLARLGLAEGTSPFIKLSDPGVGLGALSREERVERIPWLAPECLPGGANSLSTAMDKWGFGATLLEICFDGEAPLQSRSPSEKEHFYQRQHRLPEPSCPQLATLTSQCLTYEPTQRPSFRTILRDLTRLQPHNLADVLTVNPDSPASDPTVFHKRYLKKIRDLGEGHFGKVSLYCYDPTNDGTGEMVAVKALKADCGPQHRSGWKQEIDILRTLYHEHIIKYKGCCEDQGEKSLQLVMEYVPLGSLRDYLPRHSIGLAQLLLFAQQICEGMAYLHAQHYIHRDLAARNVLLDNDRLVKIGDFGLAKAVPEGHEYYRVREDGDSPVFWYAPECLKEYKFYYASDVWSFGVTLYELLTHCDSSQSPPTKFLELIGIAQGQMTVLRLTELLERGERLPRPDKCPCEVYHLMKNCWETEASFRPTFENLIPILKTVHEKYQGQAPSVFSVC

Row | SMILES | TYK2 MSD OCI-LY10 Dmax % [1] | DC50 [1] [nM] | TYK2 MSD OCI-LY10 Dmax % (OCI-LY10 cells) | DC50 (OCI-LY10 cells) [nM]
1 | CNc1cc(N2CCc3c(-c4ccc(CN5CCC6(CCN(C(=O)c7ccc(Cl)c(N8CCC(=O)NC8=O)c7)CC6)C(F)(F)C5)cn4)cccc32)nn2c(C(=O)NC3CC3)cnc12 [I-57] | B (B (90 to >75%)) | < 10 | – | –
2 | CNc1cc(N2CCc3c(CN4CCC(N5CCC(CC#Cc6ccc7c(c6)n(C)c(=O)n7C6CCC(=O)NC6=O)CC5)C(F)(F)C4)cccc32)nn2c(C(=O)N[C@@H]3C[C@@H]3F)cnc12 (some centres unmarked) [I-368] | D (D (<50%)) | > 100 | – | –
3 | CNc1cc(N2CCc3c(CN4CCC(CCN5CCN(C(=O)c6ccc(Cl)c(N7CCC(=O)NC7=O)c6)CC5)CC4)cccc32)nn2c(C(=O)N[C@@H]3C[C@@H]3F)cnc12 [I-717] | – | – | C (C (75 to 50%)) | < 10
4 | CNc1cc(N2CCc3c(CN4CCC(N5CCC(N(C)c6ccc(Cl)c(N7CCC(=O)NC7=O)c6)CC5)C(F)(F)C4)cccc32)nn2c(C(=O)N[C@@H]3C[C@@H]3F)cnc12 (some centres unmarked) [I-758] | – | – | B (B (90 to >75%)) | < 10
5 | CNc1cc(N2CCc3c(CN4CCC(N5CC(N6CCN(c7cccc8c7n(C)c(=O)n8C7CCC(=O)NC7=O)CC6)C5)C(F)(F)C4)cccc32)nn2c(C(=O)N[C@@H]3C[C@@H]3F)cnc12 (some centres unmarked) [I-471] | – | – | B (B (90 to >75%)) | < 1
6 | CNc1cc(N2CCc3c(CN4CCC(N5CCC6(CCN(C(=O)c7cc(C)c(OC)c(N8CCC(=O)NC8=O)c7)CC6)CC5)C(F)(F)C4)cccc32)nn2c(C(=O)N[C@@H]3C[C@@H]3F)cnc12 (some centres unmarked) [I-749] | – | – | B (B (90 to >75%)) | < 10
7 | CNc1cc(N2CCc3c(CN4CCC(N5CCC6(CCN(C(=O)c7cc(C)c(C)c(N8CCC(=O)NC8=O)c7)CC6)CC5)C(F)(F)C4)cccc32)nn2c(C(=O)N[C@@H]3CC[C@H]3OC)cnc12 (some centres unmarked) [I-995] | A (A (>90%)) | < 1 | – | –
8 | CNc1cc(N2CCc3c(-c4ccc(CN5CC6(CCN(C(=O)c7cc(C)c(Cl)c(N8CCC(=O)NC8=O)c7)CC6(F)F)C5)cn4)cccc32)nn2c(C(=O)NC(C)c3ncco3)cnc12 (centres unmarked) [I-1072] | B (B (90 to >75%)) | < 10 | – | –
9 | CNc1cc(N2CCc3c(CN4CCC(N5CCC6(CCN(C(=O)c7cc(C)c(Cl)c(N8CCC(=O)NC8=O)c7)CC6)CC5)C(F)(F)C4)cccc32)nn2c(C(=O)N[C@@H]3C[C@@H]3F)cnc12 (some centres unmarked) [I-713] | – | – | B (B (90 to >75%)) | < 10
10 | CNc1cc(N2CCc3c(CN4CCC(N5CCC6(CCN(C(=O)c7cc(N8CCC(=O)NC8=O)c(C)c(Cl)c7F)CC6)CC5)C(F)(F)C4)cccc32)nn2c(C(=O)N[C@@H]3CC[C@H]3OC)cnc12 (some centres unmarked) [I-1125] | A (A (>90%)) | < 1 | – | –
11 | CNc1cc(N2CCc3c(CN4CC[C@H](N5CCC6(CCN(C(=O)c7cc(Cl)c(Cl)c(N8CCC(=O)NC8=O)c7)CC6)CC5)C(F)(F)C4)cccc32)nn2c(C(=O)N[C@@H]3CC[C@H]3OC)cnc12 [I-1146] | A (A (>90%)) | < 1 | – | –
12 | CNc1cc(N2CCc3c(CN4CCC(CN5CCC6(CCN(C(=O)c7ccc(Cl)c(N8CCC(=O)NC8=O)c7)CC6)C(F)(F)C5)C(F)(F)C4)cccc32)nn2c(C(=O)N[C@@H]3CC[C@H]3OC)cnc12 (some centres unmarked) [I-1124] | A (A (>90%)) | < 1 | – | –
13 | CNc1cc(N2CCc3c(-c4ccc(CN5CCC6(CC5)CN(C(=O)c5ccc(Cl)c(N7CCC(=O)NC7=O)c5)CC6(F)F)cn4)cccc32)nn2c(C(=O)N[C@@H]3C[C@@H]3F)cnc12 [I-847] | A (A (>90%)) | < 1 | – | –
14 | CNc1cc(N2CCc3c(CC4CCN(C5CCC6(CC5)CCN(C(=O)c5ccc(Cl)c(N7CCC(=O)NC7=O)c5)CC6)CC4(F)F)cccc32)nn2c(C(=O)N[C@@H]3C[C@@H]3F)cnc12 (some centres unmarked) [I-686] | – | – | B (B (90 to >75%)) | < 10
15 | CNc1cc(N2CCc3c(CN4CCC(CN5CCC(N6CCN(C(=O)c7ccc(Cl)c(N8CCC(=O)NC8=O)c7)CC6)CC5)C(F)(F)C4)cccc32)nn2c(C(=O)N[C@@H]3C[C@@H]3F)cnc12 (some centres unmarked) [I-770] | – | – | B (B (90 to >75%)) | < 10
16 | CNc1cc(N2CCc3c(CN4CCC(N5CCC6(CCN(C(=O)c7ccc(Cl)c(N8CCC(=O)NC8=O)c7)CC6)CC5)C(F)(F)C4)cc(F)cc32)nn2c(C(=O)N[C@@H]3C[C@@H]3F)cnc12 (some centres unmarked) [I-808] | A (A (>90%)) | < 1 | – | –
